Laboratory results: patent US20240269238A1, “Therapeutic Regimens and Methods for Reducing Body Weight in a Subject with Fatty Liver Disease using a GLP-1R and GCGR Agonist” (Spitfire Pharma LLC, priority 2022, published 2024)

Tests used:
[1] = Phase 1 12-week NAFLD study (Example 1): body weight loss; assay type: in vivo, human; settings: for weight loss: week 12; for placebo-adjusted weight loss: 12 weeks
Description: (§1) Provided herein is disclosure of a Phase 1, multicenter, randomized, double-blind, placebo-controlled study to assess the effects of Pemvidutide (also termed herein as ALT-801), the safety of Pemvidutide and effects on hepatic fat fraction, anthropometric parameters, lipid metabolism, inflammatory markers and fibrosis markers in diabetic and non-diabetic (type 2 diabetes) overweight and obese (BMI 28.0 kg/m^2) subjects with NAFLD. This study was designed to assess changes in hepatic fat fraction by MRI-PDFF (magnetic resonance imaging-proton density fat fraction) in diabetic and non-diabetic overweight and obese subjects with NAFLD after 12 weeks of ALT-801 treatment. The trial was conducted without adjunctive diet and exercise interventions. The study assessed changes in body weight, lipid metabolism, metabolic markers, and inflammatory markers and safety and tolerability of ALT-801 after 12 weeks of treatment. Subjects were stratified for the presence or absence of diabetes at baseline. Fibroscan and cT1 assessments evaluated changes in liver inflammatory and fibrotic activity at the end of 12 weeks of treatment.
Overweight and obese volunteers with BMI ≥28 kg/m^2 were studied because this is the typical population of individuals with NAFLD, and these subjects are able to better tolerate the predicted Pharmacodynamics (PD) effect of weight loss and could even benefit from treatment. A hepatic fat fraction of 10% has been typical for the evaluation of hepatic fat fraction in subjects with NAFLD. In other words, individuals with a liver fat fraction of 10% or greater are typically diagnosed with NAFLD. Diabetic subjects that require insulin, sulfonylureas or DDP-4 inhibitors for control of diabetes were excluded in this study. Exclusions were instituted that might otherwise affect an accurate assessment of the effects of ALT-801 on safety or PD. The BMI upper limit is set to 45 kg/m^2 as subjects over this BMI are no likely to fit into the MRI scanner.
(§2) The study, described in this example, was carried out in 94 subjects overweight and obese (body mass index [BMI] ≥28.0 kg/m^2) Type 2 diabetic and non-diabetic subjects with nonalcoholic fatty liver disease (NAFLD) over about 4.5 months, including up to a 35-day screening period, and 85-day treatment period and a 25-day follow-up period, with treatment with ALT-801 (a composition comprising SEQ ID NO.: 1, “study medication”) or placebo administered by subcutaneous (SC) injection once weekly for up to twelve (12) doses.
(§3) The safety objective of this study was to assess the safety and tolerability of ALT-801 in 18-65 years old subjects with NAFLD (NAFLD without significant fibrosis, defined as FibroScan® controlled attenuation parameter (CAP) ≥280 dB/m and liver stiffness measurement (LSM)<10 kPa (i.e., indicating the absence of significant fibrosis), magnetic resonance imaging derived proton density fat fraction (MRI-PDFF) ≥10%), hemoglobin Alc (HbAlc) of less than 9.5%, and alanine aminotransferase (ALT) or aspartate aminotransferase (AST) values of ≤[…]. The pharmacodynamic (PD) objectives of this study were to evaluate the effects of ALT-801 on hepatic fat fraction, anthropometric parameters, lipid metabolism, metabolic markers, inflammatory markers, fibrosis markers, and lipotoxicity markers. The pharmacokinetic (PK) objectives of this study were to evaluate the effects of ALT-801 and metformin exposure (drug interactions) on the subjects (e.g., ALT-801 and metformin concentrations in blood over time).
After providing informed consent, subjects underwent a screening period of up to 35 days. Subjects were instructed on how to maintain their normal diets, alcohol consumption and physical activities and not to start any new diets, supplements, or exercise programs at any time while participating in the study. […]

[2] = test system: alanine aminotransferase (ALT); assay: Phase 1 12-week NAFLD study (Example 1): serum ALT; assay type: in vivo, human; settings: for ALT reduction: week 12; for decline in serum ALT levels: subjects with baseline serum ALT above 30 IU/L, 12 weeks
Description: as §1, §2, §3
After providing informed consent, subjects underwent a screening period of up to 35 days. Subjects were instructed on how to maintain their normal diets, alcohol consumption and physical activities and not to start any new diets, supplements, or exercise programs at any time while participating in the study. Counseling was provided on diet and exercise on the Day 1 visit and reinforced at subsequent visits. Study subjects were randomized 1:1:1:1 to one of the following treatment arms: 1) ALT-8011.2 mg SC once weekly for 12 weeks; 2) ALT-8011.8 mg SC once weekly for 12 weeks; 3) ALT-801 0.6 mg SC at week 1, 1.2 mg SC at week 2, 1.8 mg SC once weekly for 2 weeks (weeks 3 and 4), and 2.4 mg SC once weekly for weeks 5 through 12; or, 4) placebo SC once weekly for 12 weeks. Subjects were stratified by presence or absence of diabetes at baseline. Subjects in the treatment arm with a final therapeutic dose of 2.4 mg underwent a rapid 4-week dose escalation to improve tolerability and reduce the possibility of adverse events. […] See FIG. 7, second 2.4 mg column as compared to the first 2.4 mg column (this study). See WO 2022/125598. […]

With `CC[C@H](C)[C@H](NC(=O)[C@H](Cc1ccccc1)NC(=O)[C@H](CCC(=O)O)NC(=O)[C@@H]1CCCCNC(=O)CC[C@H](NC(=O)[C@H](CC(=O)O)NC(=O)[C@H](CC(C)C)NC(=O)[C@H](Cc2ccc(O)cc2)NC(=O)[C@H](CCCCN)NC(=O)[C@H](CO)NC(=O)[C@H](Cc2ccc(O)cc2)NC(=O)[C@H](CC(=O)O)NC(=O)[C@H](CO)NC(=O)[C@@H](NC(=O)[C@H](Cc2ccccc2)NC(=O)[C@@H](NC(=O)CNC(=O)[C@H](CCC(N)=O)NC(=O)C(C)(C)NC(=O)[C@@H](N)Cc2c[nH]cn2)[C@@H](C)O)[C@H](C)O)C(=O)N[C@@H](CCCCNC(=O)C2O[C@@H](OCCCCCCCCCCCCCCCCCC(=O)O)C(O)C(O)[C@@H]2O)C(=O)N[C@@H](C)C(=O)N[C@@H](C)C(=O)N1)C(=O)N[C@@H](CCC(N)=O)C(=O)N[C@@H](Cc1c[nH]c2ccccc12)C(=O)N[C@@H](CC(C)C)C(=O)N[C@@H](CC(C)C)C(=O)N[C@@H](CCC(N)=O)C(=O)N[C@H](C(N)=O)[C@@H](C)O` (stereo partly shown) [ALT-801, Pemvidutide] as the compound, how does the weight loss ([1]; all subjects, 1.2 mg) read?
Its weight loss is 3.4%.

And the weight loss ([1]; all subjects, 1.8 mg)?
Its weight loss is 4.3%.

And the weight loss ([1]; all subjects, 2.4 mg)?
The weight loss was 3.7%.

What about the weight loss ([1]; diabetic subjects, 1.2 mg) of the same compound?
The weight loss was 3.3%.

What about the weight loss ([1]; diabetic subjects, 1.8 mg) of the same compound?
Its weight loss is 3.8%.

And the weight loss ([1]; diabetic subjects, 2.4 mg)?
The weight loss was 4.4%.

And the placebo-adjusted weight loss ([1]; diabetic subjects)?
Its placebo-adjusted weight loss is 4.5%.

And the weight loss ([1]; non-diabetic subjects, 1.2 mg)?
Its weight loss is 3.4%.

What about the weight loss ([1]; non-diabetic subjects, 1.8 mg) of the same compound?
The weight loss was 4.9%.

And the weight loss ([1]; non-diabetic subjects, 2.4 mg)?
Its weight loss is 3.5%.

What about the placebo-adjusted weight loss ([1]; non-diabetic subjects) of the same compound?
The placebo-adjusted weight loss was 4.7%.

And the ALT reduction ([2]; all subjects, 1.2 mg)?
The ALT reduction was −11.2%.

And the ALT reduction ([2]; all subjects, 1.8 mg)?
Its ALT reduction is −13.8%.

And the ALT reduction ([2]; all subjects, 'the 1.8 mg dose' as printed (second mention))?
The ALT reduction was −13.6%.

What about the ALT reduction ([2]; subjects with baseline ALT >=30 IU/L, 1.2 mg) of the same compound?
Its ALT reduction is −17.8%.

What about the ALT reduction ([2]; subjects with baseline ALT >=30 IU/L, 1.8 mg) of the same compound?
Its ALT reduction is −20.8%.

What about the ALT reduction ([2]; subjects with baseline ALT >=30 IU/L, 2.4 mg) of the same compound?
Its ALT reduction is −27%.

And the “decline in serum ALT levels” value ([2]; 2.4 mg dose cohort)?
The value was 27.0 IU/L.

What about the “decline in serum ALT levels” value ([2]; all dose levels) of the same compound?
The value was “more than 17 IU/L”.
